Read-outs that look alike come from different tables or passages of the source.
Key:
[1] = test system: human diffuse large cell lymphoma B lymphocytes (Pfeiffer cell); experiment: Pharmacodynamic experiment, Pfeiffer transplanted tumor model in mice; type: in vivo, mice (beige SCID); conditions: intragastrically, once a day for 21 days
Description: Under sterile conditions, human diffuse large cell lymphoma B lymphocytes (Pfeiffer cell) in logarithmic growth stage were digested and mixed with Matrigel and transplanted subcutaneously on the right back of mice (beige SCID) with severe combined immunodeficiency disease.

[2] = Pharmacokinetic experiment in rats; type: in vivo, SD rats
Experimental: A certain amount of compound was weighted and dissolved in 0.1% Tween under vortex and ultrasound, and 0.5% carboxymethyl cellulose sodium (CMC-NA) solution was added to form a uniform solution.

Mutant type EZH2(Y641N) = Mutant type EZH2(Y641N) (Homo sapiens (Human), UniProt Q15910, Y641N); experiment: AlphaLISA, mutant type PRC2 complex EZH2(Y641N); type: biochemical; conditions: read-out: Mutant type EZH2(Y641N) IC50 Nanomoles per Liter
[3] = test system: human diffuse large B-cell lymphoma cells (Karpas 422 cell); experiment: Karpas 422 cell proliferation, Calcein AM staining; type: cell-based
wild-type EZH2 = wild-type EZH2 (Homo sapiens (Human), UniProt Q15910); experiment: radiometric assay, activity to wild-type EZH2 of PRC2
Experimental: 25 μL of reaction solution was transferred to a scintillation plate, which was incubated at room temperature for 1 hour (h) and washed with deionized water and 0.1% Tween 20 for three times. A PerkinElmer liquid scintillation/luminescence counter was used to read the value, and GraphPad Prism 5 was used to calculate the median inhibitory concentration (IC50) of the compounds.

[4] = test system: human diffuse large cell lymphoma B lymphocytes (Pfeiffer cell); experiment: Pfeiffer cell proliferation, Calcein AM staining; type: cell-based
Description: The diffuse large cell lymphoma B lymphocytes (Pfeiffer cells) were collected and counted when growing well.

Mutant type EZH2(Y641F) = Mutant type EZH2(Y641F) (Homo sapiens (Human), UniProt Q15910, Y641F); experiment: AlphaLISA, mutant type PRC2 complex EZH2(Y641F); type: biochemical; conditions: read-out: Mutant type EZH2(Y641F) IC50 Nanomoles per Liter
Mutant type EZH2(A677G) = Mutant type EZH2(A677G) (Homo sapiens (Human), UniProt Q15910, A677G); experiment: AlphaLISA, mutant type PRC2 complex EZH2(A677G); type: biochemical
[5] = male, SD, rat, plasma, rats, Intravenous-Dose 4 mg/kg, read-out: Area Curve (AUC, ng/mL · h)
[6] = male, SD, rat, plasma; rats, Intravenous-Dose 4 mg/kg; read-out: Half life T1/2, h) (converted)
[7] = male, SD, rat, plasma, rats, Oral-Dose 20 mg/kg, read-out: Area Curve (AUC, ng/mL · h)
[8] = male, SD, rat, plasma, rats, Oral-Dose 20 mg/kg, read-out: Blood Drug level (Cmax, ng/mL)
[9] = male, SD, rat, plasma, rats, oral 20 mg/kg vs intravenous 4 mg/kg, read-out: Bioavailability (P %)
[10] = Homo sapiens, KARPAS-422, data of 14th day, read-out: Karpas422 Proliferation IC50 Nanomoles per Liter
[11] = Homo sapiens, Pfeiffer, data of 14th day, read-out: Pfeiffer Proliferation IC50 Nanomoles per Liter
[12] = read-out: Mutant type EZH2(A677G) IC59 Nanomoles per Liter
[13] = male, SD, rat, in vivo, iv, 4 mg/kg
[14] = male, SD, rat, in vivo, po, 20 mg/kg
[15] = read-out: Wild-type EZH2 IC50 Nanomoles per Liter
[16] = Homo sapiens, KARPAS-422, read-out: Karpas422 Proliferation IC50 Nanomoles per Liter (nM)
[17] = Homo sapiens, Pfeiffer, read-out: Pfeiffer Proliferation IC50 Nanomoles per Liter (nM)

Sequence of wild-type EZH2 (Q15910 whole entry): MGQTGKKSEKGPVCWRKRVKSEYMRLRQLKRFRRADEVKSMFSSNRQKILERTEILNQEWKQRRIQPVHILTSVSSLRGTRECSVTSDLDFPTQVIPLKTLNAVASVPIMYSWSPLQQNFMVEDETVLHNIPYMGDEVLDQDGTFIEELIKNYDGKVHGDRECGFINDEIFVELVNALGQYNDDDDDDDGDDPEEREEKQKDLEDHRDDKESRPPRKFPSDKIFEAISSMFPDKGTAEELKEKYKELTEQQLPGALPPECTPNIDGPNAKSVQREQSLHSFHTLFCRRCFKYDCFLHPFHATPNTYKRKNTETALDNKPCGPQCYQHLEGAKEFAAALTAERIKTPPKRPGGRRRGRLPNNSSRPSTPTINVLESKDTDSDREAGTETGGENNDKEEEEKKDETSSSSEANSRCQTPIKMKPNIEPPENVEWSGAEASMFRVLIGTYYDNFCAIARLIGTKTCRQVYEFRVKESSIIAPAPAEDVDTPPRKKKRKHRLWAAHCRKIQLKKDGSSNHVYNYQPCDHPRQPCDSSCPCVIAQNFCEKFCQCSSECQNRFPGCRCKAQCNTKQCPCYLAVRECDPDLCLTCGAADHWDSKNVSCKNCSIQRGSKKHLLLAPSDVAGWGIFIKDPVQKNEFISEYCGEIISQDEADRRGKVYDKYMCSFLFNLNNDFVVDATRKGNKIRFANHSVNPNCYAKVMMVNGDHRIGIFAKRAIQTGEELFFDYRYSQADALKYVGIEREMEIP
Sequence of wild-type EZH2 (O75530 whole entry partner): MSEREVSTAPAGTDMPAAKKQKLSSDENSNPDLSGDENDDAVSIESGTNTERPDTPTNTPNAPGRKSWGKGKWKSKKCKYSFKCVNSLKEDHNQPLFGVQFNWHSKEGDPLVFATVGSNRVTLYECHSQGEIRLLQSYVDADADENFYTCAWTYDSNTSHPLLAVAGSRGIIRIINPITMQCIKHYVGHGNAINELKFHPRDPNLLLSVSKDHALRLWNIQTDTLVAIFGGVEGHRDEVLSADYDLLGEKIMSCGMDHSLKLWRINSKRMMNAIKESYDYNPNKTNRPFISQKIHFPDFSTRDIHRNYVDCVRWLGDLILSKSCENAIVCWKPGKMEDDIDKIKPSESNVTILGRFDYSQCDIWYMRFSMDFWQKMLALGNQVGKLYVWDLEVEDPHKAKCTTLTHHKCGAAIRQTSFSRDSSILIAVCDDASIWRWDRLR
Sequence of wild-type EZH2 (Q15022 whole entry partner): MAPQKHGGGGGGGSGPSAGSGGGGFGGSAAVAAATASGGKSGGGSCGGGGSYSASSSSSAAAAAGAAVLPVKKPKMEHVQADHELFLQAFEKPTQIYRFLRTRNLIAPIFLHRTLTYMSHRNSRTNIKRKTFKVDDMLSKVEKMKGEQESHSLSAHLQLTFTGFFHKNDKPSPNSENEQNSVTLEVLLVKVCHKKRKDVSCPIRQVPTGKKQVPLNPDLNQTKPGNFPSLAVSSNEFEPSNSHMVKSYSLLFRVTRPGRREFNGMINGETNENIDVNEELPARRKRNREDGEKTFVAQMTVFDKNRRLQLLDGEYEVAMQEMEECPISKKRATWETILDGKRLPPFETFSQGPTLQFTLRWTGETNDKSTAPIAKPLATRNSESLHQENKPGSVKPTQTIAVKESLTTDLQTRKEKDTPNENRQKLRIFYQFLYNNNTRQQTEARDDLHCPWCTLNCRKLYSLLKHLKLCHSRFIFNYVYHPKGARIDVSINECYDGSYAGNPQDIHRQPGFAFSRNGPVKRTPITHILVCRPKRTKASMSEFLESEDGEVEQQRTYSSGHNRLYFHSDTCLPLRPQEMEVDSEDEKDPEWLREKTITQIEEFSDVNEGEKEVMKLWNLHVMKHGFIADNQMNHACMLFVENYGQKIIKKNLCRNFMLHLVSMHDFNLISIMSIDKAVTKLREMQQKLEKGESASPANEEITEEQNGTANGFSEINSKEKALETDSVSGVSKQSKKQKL
Sequence of Mutant type EZH2(Y641N) (Q15910 whole entry Y641N): as the sequence (Q15910 whole entry) above, with Y641N counted along it
Sequence of Mutant type EZH2(Y641N) (O75530 whole entry partner): as the sequence (O75530 whole entry partner) above
Sequence of Mutant type EZH2(Y641N) (Q15022 whole entry partner): as the sequence (Q15022 whole entry partner) above
Sequence of Mutant type EZH2(Y641N) (Q09028 whole entry partner): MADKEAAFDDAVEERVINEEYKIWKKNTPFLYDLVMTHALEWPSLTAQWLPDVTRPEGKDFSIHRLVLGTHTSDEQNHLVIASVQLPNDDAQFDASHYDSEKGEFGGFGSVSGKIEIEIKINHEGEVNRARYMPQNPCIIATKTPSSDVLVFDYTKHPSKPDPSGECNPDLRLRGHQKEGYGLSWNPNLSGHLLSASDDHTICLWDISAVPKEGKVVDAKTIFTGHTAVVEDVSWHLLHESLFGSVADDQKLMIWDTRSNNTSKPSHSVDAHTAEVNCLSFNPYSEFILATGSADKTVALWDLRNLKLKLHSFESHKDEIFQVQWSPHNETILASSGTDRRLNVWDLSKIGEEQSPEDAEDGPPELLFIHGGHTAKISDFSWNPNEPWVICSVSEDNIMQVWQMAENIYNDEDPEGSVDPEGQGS
Sequence of Mutant type EZH2(Y641N) (Q6ZN18 whole entry partner): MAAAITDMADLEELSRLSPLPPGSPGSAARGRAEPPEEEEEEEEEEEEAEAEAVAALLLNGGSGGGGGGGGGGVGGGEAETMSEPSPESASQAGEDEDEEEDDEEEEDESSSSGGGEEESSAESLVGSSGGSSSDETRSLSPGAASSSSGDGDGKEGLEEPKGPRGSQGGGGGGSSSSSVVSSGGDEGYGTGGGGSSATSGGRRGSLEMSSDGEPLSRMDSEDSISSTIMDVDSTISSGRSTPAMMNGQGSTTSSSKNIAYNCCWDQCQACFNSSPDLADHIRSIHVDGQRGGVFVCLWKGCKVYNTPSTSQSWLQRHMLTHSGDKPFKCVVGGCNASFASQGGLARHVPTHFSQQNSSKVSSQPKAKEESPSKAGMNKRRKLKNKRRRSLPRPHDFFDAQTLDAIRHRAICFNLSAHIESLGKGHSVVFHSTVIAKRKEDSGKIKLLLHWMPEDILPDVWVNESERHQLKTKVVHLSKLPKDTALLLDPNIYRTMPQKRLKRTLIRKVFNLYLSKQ
Sequence of Mutant type EZH2(A677G) (Q15910 whole entry A677G): as the sequence (Q15910 whole entry) above, with A677G counted along it
Sequence of Mutant type EZH2(A677G) (O75530 whole entry partner): as the sequence (O75530 whole entry partner) above
Sequence of Mutant type EZH2(A677G) (Q15022 whole entry partner): as the sequence (Q15022 whole entry partner) above
Sequence of Mutant type EZH2(A677G) (Q09028 whole entry partner): as the sequence (Q09028 whole entry partner) above
Sequence of Mutant type EZH2(A677G) (Q6ZN18 whole entry partner): as the sequence (Q6ZN18 whole entry partner) above
Sequence of Mutant type EZH2(Y641F) (Q15910 whole entry Y641F): as the sequence (Q15910 whole entry) above, with Y641F counted along it
Sequence of Mutant type EZH2(Y641F) (O75530 whole entry partner): as the sequence (O75530 whole entry partner) above
Sequence of Mutant type EZH2(Y641F) (Q15022 whole entry partner): as the sequence (Q15022 whole entry partner) above
Sequence of Mutant type EZH2(Y641F) (Q09028 whole entry partner): as the sequence (Q09028 whole entry partner) above
Sequence of Mutant type EZH2(Y641F) (Q6ZN18 whole entry partner): as the sequence (Q6ZN18 whole entry partner) above

Compound | IC50 (Mutant type EZH2(Y641N)) | IC50 [3, 10] | IC50 [4, 11] | IC50 (Mutant type EZH2(Y641F)) | IC50 (Mutant type EZH2(A677G); [12]) | IC50 (wild-type EZH2; [15]) | IC50 (wild-type EZH2) | other results
CCN(c1cc(-c2ccc3c(c2)NCC32CCOCC2)cc(C(=O)NCc2c(OC)cc(C)[nH]c2=O)c1C)C1CCNCC1 [Example 5, 3-(ethyl(piperidin-4-yl)amino)-N-((4-methoxy-6-methyl-2-oxo-1,2-dihydropyridin-3-yl)methyl)-2-methyl-5-(2′,3′,5′,6′-tetrahydrospiro[indoline-3,4′-pyran]-6-yl)benzamide] | – | – | – | – | – | – | – | inhibition in vivo at 100 mg/kg ([1]; Mus musculus, Pfeiffer, po, 504 h, read-out: inhibited tumor growth): 98%; AUC [2, 5]: 912 ng·h/mL; half-life [2, 6]: 1.05 h; AUC [2, 7]: 1570 ng·h/mL; Cmax [2, 8]: 453 ng/mL; bioavailability [2, 9]: 34.3%
CCN(c1cc(-c2ccc3c(c2)NCC32CCN(C)CC2)cc(C(=O)NCc2c(C)cc(C)[nH]c2=O)c1C)C1CCOCC1 [Example 7, N-((4,6-dimethyl-2-oxo-1,2-dihydropyridin-3-yl)methyl)-3-(ethyl(tetrahydro-2H-pyran-4-yl)amino)-2-methyl-5-(1′-methylspiro[dihydroindole-3,4′-piperidine]-6-yl)benzamide] | – | – | – | – | – | – | – | inhibited tumor growth ([1]; 100 mg/kg): 95%; Area Curve (AUC, ng/mL · h) ([2]; rats, Intravenous-Dose 4 mg/kg): 937.25 ng·h/mL; Half life T1/2, h) ([2]; rats, Intravenous-Dose 4 mg/kg): 1.64 h; Area Curve (AUC, ng/mL · h) ([2]; rats, Oral-Dose 20 mg/kg): 1435.87 ng·h/mL; Blood Drug level (Cmax, ng/mL) ([2]; rats, Oral-Dose 20 mg/kg): 405.10 ng/mL; Bioavailability (P %) ([2]; rats, oral 20 mg/kg vs intravenous 4 mg/kg): 30.64%
CCN(c1cc(-c2ccc3c(c2)N(C(C)C(C)C)CC32CCOCC2)c(Cl)c(C(=O)NCc2c(C)cc(C)[nH]c2=O)c1C)C1CCOCC1 (stereo not drawn) [Example 55, 2-chloro-N-((4,6-dimethyl-2-oxo-1,2-dihydropyridin-3-yl)methyl)-5-(ethyl(tetrahydro-2H-pyran-4-yl)amino)-6-methyl-3-(1-(3-methylbutyl-2-yl)-2′,3′,5′,6′-tetrahydrospiro[dihydroindole-3,4′-pyran]-6-yl)benzamide] | 300 pM | 0.97 nM | 0.65 nM | 580 pM | 420 pM | – | 630 pM | AUC [2, 5]: 933 ng·h/mL; half-life [2, 6]: 1.53 h; AUC [2, 7]: 1270 ng·h/mL; Cmax [2, 8]: 438 ng/mL; bioavailability [2, 9]: 27.1%
CCN(c1cc(-c2ccc3c(c2)NC(=O)C32CCN(C3COC3)CC2)cc(C(=O)NCc2c(C)cc(C)[nH]c2=O)c1C)C1CCOCC1 [Example 84, N-((4,6-dimethyl-2-oxo-1,2-dihydropyridin-3-yl)methyl)-3-(ethyl(tetrahydro-2H-pyran-4-yl)amino)-2-methyl-5-(1′-(oxetan-3-yl)-2-oxospiro[dihydroindole-3,4′-piperidine]-6-yl)benzamide] | 250 pM | 1.86 nM | 1.74 nM | 630 pM | 470 pM | 2130 pM | – | AUC [2, 13]: 933 ng·h/mL; half-life [2, 13]: 1.38 h; AUC [2, 14]: 1190 ng·h/mL; Cmax [2, 14]: 501 ng/mL; bioavailability [2, 14]: 25.4%
CCN(c1cc(-c2ccc3c(c2)C2(CC=C(F)CC2)C(=O)N3)cc(C(=O)NCc2c(C)cc(C)[nH]c2=O)c1C)C1CCOCC1 (stereo not drawn) [Example 118, N-((4,6-dimethyl-2-carbonyl-1,2-dihydropyridin-3-yl)methyl)-3-(ethyl(tetrahydro-2H-pyran-4-yl)amino)-5-(4-fluoro-2′-carbonylspiro[cyclohexano-1,3′-dihydroindole]-3-ene-5′-yl)-2-methylbenzamide] | 320 pM | – | – | 580 pM | – | – | 910 pM | IC50 [3, 16]: 1.68 nM; IC50 [4, 17]: 1.05 nM; IC50 (Mutant type EZH2(A677G)): 450 pM
CCN(c1cc(-c2ccc3c(c2)C2(CCC(F)CC2)C(=O)N3)cc(C(=O)NCc2c(C)cc(C)[nH]c2=O)c1C)C1CCOCC1 (stereo not drawn) [Example 119, 5-(4-Fluoro-2′-carbonylspiro[cyclohexano-1,3′-dihydroindole]-5′-yl)-N-((4,6-dimethyl-2-carbonyl-1,2-dihydropyridin-3-yl)methyl)-3-(ethyl(tetrahydro-2H-pyran-4-yl)amino)-2-methylbenzamide] | 630 pM | – | – | 950 pM | – | – | 980 pM | IC50 [3, 16]: 4.15 nM; IC50 [4, 17]: 3.52 nM; IC50 (Mutant type EZH2(A677G)): 760 pM
CCN(c1cc(-c2ccc3c(c2)NC(=O)C32CCOCC2)cc(C(=O)NCc2c(OC)cc(C)[nH]c2=O)c1C)C1CCC(N(C)CCOC)CC1 (stereo not drawn) [Example 120, 3-(Ethyl(4-((2-methoxyethyl)(methyl)amino)cyclohexyl)amino)-N-((4-methoxy-6-methyl-2-oxo-1,2-dihydropyridin-3-yl)methyl)-2-methyl-5-(2-oxo-2′,3′,5′,6′-tetrahydrospiro[dihydroindole-3,4′-pyran]-6-yl)benzamide] | 480 pM | 4.47 nM | 2.96 nM | 680 pM | 530 pM | 1260 pM | – | –

Now from value to compound, other results behind:

IC50 (Mutant type EZH2(Y641N)) | IC50 [3, 10] | IC50 [4, 11] | IC50 (Mutant type EZH2(Y641F)) | IC50 (Mutant type EZH2(A677G); [12]) | IC50 (wild-type EZH2; [15]) | Compound | IC50 (wild-type EZH2) | other results
420 pM | 2.85 nM | 2.73 nM | 790 pM | 780 pM | – | CCN(c1cc(-c2ccc3c(c2)NC(=O)C32CCOCC2)cc(C(=O)NCc2c(OC)cc(C)[nH]c2=O)c1C)C1CCC(N(C)C)CC1 (stereo not drawn) [Example 100] | 1050 pM | –
570 pM | 3.68 nM | 2.74 nM | 950 pM | 820 pM | 1160 pM | CCN(c1cc(-c2cnc3c(c2)NC(=O)C32CCOCC2)cc(C(=O)NCc2c(C)cc(C)[nH]c2=O)c1C)C1CCOCC1 [Example 101, N-((4,6-Dimethyl-2-oxo-1,2-dihydropyridin-3-yl)methyl)-3-(ethyl(tetrahydro-2H-pyran-4-yl)amino)-2-methyl-5-(2′-oxo-1′,2,2′,3,5,6-hexahydrospiro[pyran-4,3′-pyrrolo[3,2-b]pyridine]-6′-yl)benzamide] | – | –
450 pM | 3.87 nM | 3.45 nM | 890 pM | 730 pM | 960 pM | CCN(c1cc(-c2ccc3c(c2)NC(=O)C32CCOCC2)cc(C(=O)NCc2c(C)cc(C)[nH]c2=O)c1C)C1CCOCC1OC (stereo not drawn) [Example 102, N-((4,6-Dimethyl-2-oxo-1,2-dihydropyridin-3-yl)methyl)-3-((ethyl)(3-methoxytetrahydro-2H-pyran-4-yl)amino)-2-methyl-5-(2-oxo-2′,3′,5′,6′-tetrahydrospiro[dihydroindole-3,4′-pyran]-6-yl)benzamide] | – | –
480 pM | 5.78 nM | 4.17 nM | 820 pM | 510 pM | 1020 pM | CCN(c1cc(-c2ccc3c(c2)NC(=O)C32CCOCC2)cc(C(=O)NCc2c(OC)cc(C)[nH]c2=O)c1C)C1CCOCC1OC (stereo not drawn) [Example 112, 3-(Ethyl(3-methoxytetrahydro-2H-pyran-4-yl)amino)-N-((4-methoxy-6-methyl-2-oxo-1,2-dihydropyridin-3-yl)methyl)-2-methyl-5-(2-oxo-2′,3′,5′,6′-tetrahydrospiro[dihydroindole-3,4′-pyran]-6-yl)benzamide] | – | AUC [2, 5]: 936 ng·h/mL; half-life [2, 6]: 1.26 h; AUC [2, 7]: 1190 ng·h/mL; Cmax [2, 8]: 494 ng/mL; bioavailability [2, 9]: 25.5%
530 pM | 3.54 nM | 2.36 nM | 740 pM | 680 pM | 1040 pM | CCN(c1cc(-c2ccc3c(c2)NC(=O)C32CCOCC2)cc(C(=O)NCc2c(C)cc(C)[nH]c2=O)c1C)C1CCC(N(C)C2COC2)CC1 (stereo not drawn) [Example 121, N-((4,6-dimethyl-2-oxo-1,2-dihydropyridin-3-yl)methyl)-3-(ethyl(4-(methyl(oxetan-3-yl)amino)cyclohexyl)amino)-2-methyl-5-(2-oxo-2′,3′,5′,6′-tetrahydrospiro[dihydroindole-3,4′-pyran]-6-yl)benzamide] | – | –
520 pM | – | – | 920 pM | 720 pM | 1150 pM | CCN(c1cc(-c2ccc3c(c2)C2(CCOCC2)C(=O)N3C)cc(C(=O)NCc2c(OC)cc(C)[nH]c2=O)c1C)C1CCN(CC(F)(F)F)CC1 [Example 123, 3-(Ethyl(1-(2,2,2-trifluoroethyl)piperidin-4-yl)amino)-N-((4-methoxy-6-methyl-2-oxo-1,2-dihydropyridin-3-yl)methyl)-2-methyl-5-(1-methyl-2-oxo-2′,3′,5′,6′-tetrahydrospiro[dihydroindole-3,4′-pyran]-5-yl)benzamide] | – | IC50 ([3]; data of 14th day, read-out: Karpas422 Proliferation IC50 Nanomoles per Liter): 3.23 nM; IC50 ([4]; data of 14th day, read-out: Pfeiffer Proliferation IC50 Nanomoles per Liter): 2.84 nM

Source: patent US12473298B2, “Amide compounds, preparation method therefor, and use thereof in the medical field” (Shanghai Synergy Pharmaceutical Sciences Co., Ltd., priority 2019, dated 2025)
